The melting point is the temperature of the solid-liquid transition.

On to `Cc1ccccc1COC1(C)COC(CCl)OC1` (stereo not given), for which the melting point fell in the range of 57 to 58 °C.

Compound `CNC(=O)N(C)c1nnc(SCc2cccc(F)c2)s1` registered a melting point of 112 to 116 °C.

`CCCc1ccccc1OCCCOc1ccc2c(=O)cc(C(=O)OCC)oc2c1` displayed a melting point of 73 to 75 °C.

On to `COc1cnc2[nH]cc(/C=C3\N=C(NCC4CC4)NC3=O)c2c1`, for which the melting point lay within 280 to 286 °C.

In turn, `CCOC(=O)CCCOc1ccc(N2CCN(c3ccncc3)CC2)cc1` registered a melting point of 84 to 85 °C.

In turn, `COC(=O)CCCSc1c(Cc2cccc3ccccc23)sc2c1c(=O)n(C)c(=O)n2CC(C)C` showed a melting point of 111 to 112 °C.

Consider `CC(C)(CO)NS(=O)(=O)c1cccc(-c2cc(-c3nc(-c4ccc(C(F)(F)F)cc4)cc(C(F)(F)F)n3)ccn2)c1`, for which the melting point was found to be 221 °C.

`O=c1c2cnc3ccc(Cl)cc3c2on1-c1ccccc1` displayed a melting point of 174 °C.

`O=C(Nc1c[nH]nc1C(=O)NCc1ccc(-c2ccccc2)cc1)c1ccccn1` showed a melting point of 227 to 228 °C.

`Cn1c(C(F)(F)F)cc(=O)n(-c2cc(OCc3ccccc3F)c(Cl)cc2F)c1=O` yielded a melting point of 126 to 128 °C.

Compound `Oc1cc(Cl)ccc1Oc1ccccc1-c1ncon1` returned a melting point of 124 to 125 °C.

`O=C1c2ccccc2Cc2ccccc2C1Br` (stereo not given) yielded a melting point of 82 to 84 °C.

As to `COc1ccc(OCc2cn(C34CC5CC(CC(C5)C3)C4)nn2)cc1OC`, the melting point fell in the range of 108 to 112 °C.

The compound `CC(=O)Oc1ccc(-c2ccc(C(C)=O)cc2)cc1Br` came in with a melting point of 100 °C.

Compound `O=C1c2ccccc2C(=O)N1C[C@H]1COc2ccc(Cl)cc2O1` came in with a melting point of 174 to 176 °C.

For the compound `COCCCNS(=O)(=O)NC(=O)OC/C=C/c1ccc(OCCOC)cc1Oc1ncc(C(F)(F)F)cc1Cl`, the melting point was 98 to 100 °C.

Regarding `CCCCNC(=O)C(O[Si](C)(C)C(C)(C)C)c1ccccc1Br` (stereo not given), the melting point lay in the range of 38 to 39 °C.

In turn, `COc1cccc2c1C(CC(C)=O)NC2=O` (stereo not given) came in with a melting point of 176 to 178 °C.

The compound `CC1CN(c2ccccc2)N=C1N` (stereo not given) came in with a melting point of 83 to 84 °C.

`CS(=O)(=O)c1ccc(-c2cc(C(=O)c3cccnc3)sc2N2CCOCC2)cc1` had a melting point of 122 °C.

Turning to `C/C(=C(\C#N)C(N)=S)N1CCc2ccccc2C1`, the melting point was 244 to 245 °C.

`O=C(O)C1Cc2cc3c(-c4ccccc4)noc3c(Cl)c2O1` (stereo not given) yielded a melting point of 214 to 215 °C.

In turn, `Cn1cc(C(=O)O)c(=O)c2cc(F)c(F)c(F)c21` registered a melting point of 255 to 258 °C.

For `CC(=O)C=CC1=C(C)C(=O)CCC1(C)C`, the melting point fell in the range of 50 to 51 °C.

Consider `CC(=O)c1ccc(-c2ccc(C(=O)NCCCCN3CCC(c4ccc5c(c4O)CCCC5)CC3)cc2)cc1`, for which the melting point was in the range of 180 to 185 °C.

The compound `COc1ccc(Cl)cc1C(=O)NCCc1ccc([N+](=O)[O-])cc1` yielded a melting point of 159 to 160 °C.

In the case of `CCNC(=O)c1c(Br)ccc(OC)c1Cl`, the melting point was in the range of 181 to 182 °C.

`CCCc1nc2c(N)nc(C)c(C)c2n1CCCCCS(=O)(=O)c1ccccc1`: the melting point was in the range of 134 to 136 °C.

In the case of `Cc1cc(NC(=O)c2ccccc2C)ccc1Br`, the melting point was 144 to 146 °C.

For the compound `C=CCOc1ccc(S(=O)(=O)Nc2ccc(Cl)cc2C(=O)c2ccccc2Cl)cc1`, the melting point lay in the range of 96 to 97 °C.

In turn, `CNC(=S)NS(=O)(=O)c1cc(CCNC(=O)/C=C/c2cccs2)ccc1OC` came in with a melting point of 74 to 77 °C.

As to `CC1(CN2CCN(c3cccc4c3OCCO4)CC2)N=C(c2ccccc2)NC1=O` (stereo not given), the melting point was 80 to 85 °C.

With `COC(=O)NC(=S)Nc1ccon1`, the melting point is 165 to 167 °C.

`COc1ccc(CC(=O)NCCc2ccc3[nH]cc(CC#N)c3c2)cc1` yielded a melting point of 155 to 156 °C.

Take `O=c1n(CCCCN2CCC(n3c(=O)[nH]c4ccccc43)CC2)nc2n1-c1ccccc1OC2`: the melting point was in the range of 173 to 176 °C.

Regarding `CCC1COc2c(Cc3ccc(C(C)C)cc3)c(C)c(NC(=O)CC(C)(C)C)c(C)c21` (stereo not given), the melting point fell in the range of 156 to 157 °C.

In turn, `CN1CCc2cc3ccccc3n2CC1` gave a melting point of 59 to 60 °C.

Turning to `O=C(CSc1ccc(Cl)c(Cl)c1)C12CC3CC(CC(C3)C1)C2`, the melting point was 105 to 110 °C.

`CCC1c2ncn(C)c2CCN1C(=S)NC(C)C` (stereo not given): the melting point is 186 °C.

`COC(=O)C(C)c1noc2cc(F)c(N3C(=O)C(C)=C(C)C3=O)cc12` (stereo not given) displayed a melting point of 106 to 107 °C.

`COc1c(OCc2ccccc2)ccc2[nH]ccc(=O)c12` returned a melting point of 180 °C.

In turn, `CN(C)C(C#N)C1(c2ccc(Cl)cc2)CCC1` (stereo not given) displayed a melting point of 90 to 91 °C.

Consider `COc1ccc2cc(NC(C)=O)cc(C)c2n1`, for which the melting point lay in the range of 193 to 196 °C.

For `O=[N+]([O-])c1ccc(N2C[C@H]3CN(Cc4ccccc4)C[C@H]3C2)cc1`, the melting point lay within 121 to 123 °C.

`CCCc1n[nH]c(C(N)=O)c1[N+](=O)[O-]` returned a melting point of 197 to 199 °C.

For the compound `CC(=O)Oc1cc2ccccc2cc1C(=O)O`, the melting point was in the range of 185 to 186 °C.

The compound `CCCc1c(OCC(=O)NCCCCc2cccnc2)ccc(C(C)=O)c1O` gave a melting point of 95 to 97 °C.

For the compound `CC1CCN(C(=O)NCCc2ccc(S(=O)(=O)NC(=O)NC3CCC(C)C3)cc2)C(=O)C1` (stereo not given), the melting point fell in the range of 145 to 147 °C.

`Cc1nc(-c2cc(N)ccc2F)cs1`: the melting point is 73 to 75 °C.

As for `COC(=O)c1cccc(N2CC(C)=CC2=O)c1`, the melting point was in the range of 87 to 89 °C.

The compound `CCCCCCCCCCCCCCCCCC1OCC(COC(O)CCC)O1` (stereo not given) yielded a melting point of 34 to 44 °C.

Turning to `Cc1cc2c(cc1C)C(=O)C(CC(=O)O)CC2` (stereo not given), the melting point was in the range of 193 to 194 °C.

`Fc1ccc2c(C3=CCN(CC4CCc5ccccc5O4)CC3)c[nH]c2c1` (stereo not given) came in with a melting point of 160 to 161 °C.

`CCOc1ccc(-c2nc(Cn3cccc3C(C)=O)cs2)cc1OCC`: the melting point lay in the range of 123 to 124 °C.

The compound `CC(C)c1nn(-c2ccc(C(F)(F)F)cn2)cc1CCCCOc1ccccc1CC(=O)O` returned a melting point of 125 to 126 °C.

For `Cc1nc2c(O[C@@H]3c4ccccc4C[C@H]3O)cccn2c1N=O` (relative stereo), the melting point fell in the range of 178 to 179 °C.

The compound `CCCCc1nn(-c2cc(N)ccc2Cl)c(=O)n1Cc1ccc(-c2ccccc2S(=O)(=O)NC(=O)OC(C)(C)C)cc1F` yielded a melting point of 208 to 210 °C.

Compound `COc1cc2c(cc1O)CCN(C(=O)c1cccc(C#N)c1)C2=O` yielded a melting point of 197 to 198 °C.

On to `COc1ccc(N2CCN(c3c(C)c(C)c4c(c3C)C(N3CCOCC3)C(C)(C)O4)CC2)cc1` (stereo not given), for which the melting point lay within 181 to 182 °C.

`COc1cc(CC(C)NC(=O)c2ccccc2)cc2c1OC(C)(C)C2` (stereo not given) came in with a melting point of 141 to 142 °C.

With `CC1(C)CCC2=C(O1)c1ccccc1C1(OCC(CO)O1)C2=O` (stereo not given), the melting point was in the range of 44 to 46 °C.

Take `CCCCCCCC[C@@H](O)C(=O)Nc1cccc2nc(SC)ccc12`: the melting point was in the range of 119 to 120 °C.

The compound `CCCn1nc(-c2ccc(OC(=O)CC(C)(C)C)cc2)c2cccc(Cl)c21` returned a melting point of 71 to 72 °C.

The compound `CCOC(=O)c1cc(NC(=O)c2ccccc2OC(C)=O)cc(Cl)c1O` showed a melting point of 163 to 166 °C.

Compound `CCOC(=O)CCC1(NC(=O)c2ccc3ccccc3c2)C(=O)N(c2ccccc2)c2cc(OCC)ccc21` (stereo not given) showed a melting point of 195 to 196 °C.
